Test results from publication PMC8032668, “Evaluation of carboxyfluorescein-labeled 7-methylguanine nucleotides as probes for studying cap-binding proteins by fluorescence anisotropy” (Scientific Reports, 2021).

How the values were obtained:
eIF4E = test system: eIF4E; design: method as in PMID 22316555; details: cited from earlier work
DcpS = target: T1, DcpS (Homo sapiens, UniProt Q96C86); test: FA screening of in-house library, 2i:DcpS system; assay type: binding; details: 1 nM 2i, 25 nM DcpS, 1.5 µM inhibitor
T1 construct: His tag; made in house; host or cells: E. coli BL21(DE3) RIL
T1 sequence (Q96C86 1-337): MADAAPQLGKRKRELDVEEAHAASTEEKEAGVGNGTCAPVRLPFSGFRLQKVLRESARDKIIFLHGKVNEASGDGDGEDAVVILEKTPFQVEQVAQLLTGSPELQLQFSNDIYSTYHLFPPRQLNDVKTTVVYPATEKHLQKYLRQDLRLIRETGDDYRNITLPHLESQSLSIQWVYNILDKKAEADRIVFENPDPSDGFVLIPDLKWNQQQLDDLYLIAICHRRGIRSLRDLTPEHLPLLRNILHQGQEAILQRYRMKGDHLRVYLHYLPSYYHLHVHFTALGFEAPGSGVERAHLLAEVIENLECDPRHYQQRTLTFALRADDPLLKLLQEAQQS
Description: The Z’ factor was determined under conditions optimized for the competition assay. The Z’ value exceeded 0.8 for incubation times up to 1 h, making the assay suitable for screening experiments (Table 5). A screening experiment was then performed using the same compound library as that used for eIF4E screening. The results highlighted the impact of the triphosphate bridge modification on the affinity for the protein. […] The FA method also enabled the identification of unstable compounds, e.g., hydrozylable ligands for which determination of affinity is problematic (as observed by FA signal changes during the experiment; Fig. 7).
To evaluate the quality of the assay, the Z’ factor was determined for several protein-probe combinations. The assay was performed on 96-well microplates, where half of the samples were negative controls and the other half were positive controls.
For the screening experiments a small in-house library containing 21 ligands was used. Experiments were conducted in the same manner as Z’ factor determination, with exception that the ligand concentration was modified (eIF4E screening conditions: 1 nM 1e, 100 nM eIF4E, 750 nM ligand, DcpS screening conditions: 1 nM 2i, 25 nM DcpS, 1.5 µM ligand). For eIF4E screening experiment, the 1e:eIF4E system was used, for DcpS screening 2i:DcpS system was used.

inhibitory potency in DcpS screening (DcpS): strong DcpS inhibitors
SMILES: C[n+]1cn([C@@H]2O[C@H](COP(=O)([O-])NP(=O)([O-])OP(=O)([O-])OP(=O)([O-])OC[C@H]3O[C@@H](n4cnc5c(=O)[nH]c(N)nc54)[C@H](O)[C@@H]3O)[C@@H](O)[C@H]2O)c2nc(N)[nH]c(=O)c21.[Na+].[Na+].[Na+] [m^7GpNHpppG]
association constant KAS (eIF4E): 112.3 ± 1.8 µM⁻¹
